From patent US12024504B2, “1-methyl-1H-pyrazol-3-yl derivatives for use in the treatment of neovascular diseases” (EXONATE LIMITED, priority 2021, dated 2024)

Key:
[1] = Porcine scleral permeability (modified Ussing chamber); format: in vitro ADME; settings: pig, pH 7.4, porcine excised eye tissue, 10 μg/mL compound on donor side
Experimental: Scleral permeability was measured using a modified Ussing chamber assembly in the initial eye drop formulation containing 1% hydroxypropyl methyl cellulose, 0.2% tyloxapol, 3.4% dextrose, 0.006% benzalkonium chloride, and 0.025% ethylenediaminetetraacetic acid with 1% DMSO in PBS (pH 7.4). Porcine excised eye tissues were mounted in the chambers such that the episcleral side faced the donor chamber and the retinal side faced the receiver chamber. The chambers were filled with equal volumes of eye drop formulation, with (donor side) or without (receiver side) 10 μg/mL compound. After 24 hours tissue was removed from the chamber and the receiver side (“vitreous”) sampled. Tissue was dissected into sclera, choroid/RPE, and retina and homogenised. A tracer (SPHINX7; WO 2015/159103) was added, and tissue extracted by acetonitrile extraction as described in Batson et al (2017). Compounds were then analysed by mass spectrometry as described in Batson et al (2017).
To determine whether compounds could get across the sclera of a larger animal, porcine sclera was clamped between two chambers and compounds were added to the sclera with eye drop formulation added to the bottom chamber and compounds added to the top chamber. After 24 hours, the fluid from the bottom chamber (vitreous) and the retinal tissue was isolated and compounds purified by methanol or acetonitrile extraction and HPLC.

SRPK1 = biological target: T1, SRPK1 (Homo sapiens, UniProt Q96SB4); test: In vitro kinase assay (radioactive filter binding, 33P ATP); format: biochemical
T1 construct: purchased MRC Dundee Kinase Centre (external assay service)
Experimental: Kinase assays were carried out by the MRC Dundee Kinase Centre using a radioactive filter binding assay using ^33P ATP (Hastie, et al 2006. Nat Protoc. 2006; 1(2):968-71; Bain, et al 2007. Biochem J. 2007 Dec. 15; 408(3):297-315).

[2] = tested on: choroidal neovascularisation; test: Laser-induced choroidal neovascularisation (CNV); format: in vivo, C57/B6 mice
Experimental: 6-8 week-old female C57/B6 mice were anesthetized with an intraperitoneal injection of a mixture of 50 mg/kg ketamine and 0.5 mg/kg medetomidine. The pupils were immediately dilated by topical (eyedrop) application with a dilator such as 5% phenylephrine hydrochloride and 1% tropicamide. Four photocoagulation lesions were delivered with a green Merilas 532α laser (450 mW, 130 ms) between the “large” retinal vessels in clear space with no vessels in a peripapillary distribution at a distance of 1-2 disc-diameters in each eye. Only clean laser lesions with a subretinal bubble at the time of treatment were included in the study. Immediately following laser photocoagulation the animals were given topical eye drops of candidate compounds twice daily at 2 μg/mL, 0.2 μg/mL or 0.066 μg/mL or eye drop formulation control as indicated (10 μL, eyes held for 30 seconds to prevent animal wiping drop away). Experiments were performed with an initial eye drop formulation containing 1% hydroxypropyl methyl cellulose, 0.2% tyloxapol, 3.4% dextrose, 0.006% benzalkonium chloride, and 0.025% ethylenediaminetetraacetic acid with 1% DMSO in PBS and data were confirmed in a second eye drop formulation containing 7% poly-oxyl-40-stearate and 4% dextrose in PBS.
After one week, mice were anesthetized with an intraperitoneal injection of a mixture of 50 mg/kg ketamine and 0.5 mg/kg medetomidine. […]

[3] = Non-human primate pharmacokinetic study (eye drops); format: in vivo, Cynomolgus monkeys
Experimental: Non-human primate pharmacokinetic study Cynomolgus monkeys were treated bidaily for 20 days with 35 μL eye drops of compound 1 at 0.5 mg/mL, 1.0 mg/mL or 1.5 mg/ml as indicated, in the eye drop formulation containing 7% poly-oxyl-40-stearate and 4% dextrose in PBS. Blood and aqueous samples were collected 1 h, 4 h, 8 h, 10 h and 14 h after eye drop administration on day 1 and at the end of the study. 1 h after the final eye drop on day 21, the animals were euthanised and ocular tissues and blood were collected. The retina was dissected from the choroid and sclera, incisions made, and laid out flat. Retina, RPE/choroid and sclera eye compartments were dissected into 7 different areas. All samples were weighed. Compound was extracted by reverse phase extraction from the retina and choroid/sclera samples and the plasma as above, and amount determined by mass spectrometry in different areas of the eye and in the blood. Amounts per milligram of tissue or nM for aqueous and blood were calculated for each sample, and averaged.
(§1) To determine whether compound 1 could penetrate into the retina of primates we dosed cynomologous monkeys with 0.5, 1.0 or 1.5 mg/mL compound 1 twice a day for 21 days. […] Aqueous taps and plasma samples were taken during the treatment and compound 1 measured in the fluid. […] To determine if these doses were sufficient to inhibit angiogenic VEGF-A isoform expression, retinal tissue was subjected to immunoblotting using pan-VEGF or VEGF-A165b antibodies.

pan-VEGF and VEGF-A165b = test: Non-human primate retinal VEGF immunoblotting; format: in vivo, Cynomolgus monkeys; settings: monkey
Experimental: Retina sections sampled from half of the eye were homogenised in NP40 lysis buffer as described in Gammons et al., 2013. The extracts were then immunoblotted using either rabbit anti-panVEGF (Santa Cruz A20 sc-152; 1:500) or mouse anti-VEGFi65b (MAB3045; R&D; 1:500).
as §1

[4] = 3 weeks bidaily dosing, FIG. 10b

T1 sequence (Q96SB4 whole entry): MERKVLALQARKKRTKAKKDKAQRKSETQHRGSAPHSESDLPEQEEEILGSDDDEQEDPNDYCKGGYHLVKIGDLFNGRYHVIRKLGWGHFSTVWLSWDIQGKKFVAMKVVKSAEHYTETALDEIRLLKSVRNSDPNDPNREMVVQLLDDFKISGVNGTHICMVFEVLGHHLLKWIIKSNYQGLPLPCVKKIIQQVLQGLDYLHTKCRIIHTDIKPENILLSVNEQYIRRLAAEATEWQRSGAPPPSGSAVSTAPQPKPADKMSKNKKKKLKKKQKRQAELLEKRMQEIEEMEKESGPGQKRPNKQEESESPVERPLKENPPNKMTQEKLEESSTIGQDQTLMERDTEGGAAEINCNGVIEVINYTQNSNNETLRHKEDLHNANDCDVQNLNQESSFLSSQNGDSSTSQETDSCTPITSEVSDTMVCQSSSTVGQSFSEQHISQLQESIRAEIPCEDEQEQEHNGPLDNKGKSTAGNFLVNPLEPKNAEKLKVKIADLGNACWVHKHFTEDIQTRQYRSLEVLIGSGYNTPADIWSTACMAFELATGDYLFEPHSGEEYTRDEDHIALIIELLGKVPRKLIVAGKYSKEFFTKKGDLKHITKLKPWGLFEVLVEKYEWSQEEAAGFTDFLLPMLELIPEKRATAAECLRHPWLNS

Cn1ccc(CN2CCN(c3ccc(C(F)(F)F)cc3NC(=O)c3ccc(C4CCOCC4)o3)CC2)n1 [Compound 1, N-(2-(4-((1-methyl-1H-pyrazol-3-yl)methyl)piperazin-1-yl)-5-(trifluoromethyl)phenyl)-5-(tetrahydro-2H-pyran-4-yl)furan-2-carboxamide]
Papp at 24 h, 10 μg/mL [1]: 0.067 ×10⁻⁶ cm/s
IC50 (SRPK1): 4 nM
Anti-angiogenic activity on lesion size versus reference compounds ([2]; laser-induced mouse model of CNV, FIG. 7): same anti-angiogenic activity on lesion size as reference compounds
Inhibition of choroidal neovascularisation ([2]; mouse, eye drops twice daily at 0.066 μg/mL, FIG. 7b): significantly inhibited
half-life ([3]; cynomolgus, cynomolgus monkey, aqueous humour, topical or ocular, monkey, after administration of 1.5 mg/mL eye drop): 2 h
Concentrations in retina, choroid, vitreous and other tissues of the eye ([3]; monkey, 0.5, 1.0 or 1.5 mg/mL twice a day for 21 days): significant concentrations
Concentrations in aqueous taps and plasma samples ([3]; monkey, all three doses (0.5, 1.0, 1.5 mg/mL)): Significant concentrations were seen at all three doses
Total VEGF levels in retina (pan-VEGF and VEGF-A165b; [4]): total VEGF levels are decreased
VEGF-A165b levels in retina (pan-VEGF and VEGF-A165b; [4]): do not decrease and increase at 1 mg/ml
Ratio of angiogenic to anti-angiogenic VEGF-A in retina (pan-VEGF and VEGF-A165b; FIG. 10c): decreases
